Our source for the Ki values is ChEMBL document CHEMBL1135449, “A novel series of hybrid compounds derived by combining 2-aminotetralin and piperazine fragments: binding activity at D2 and D3 receptors” (Bioorg Med Chem Lett, 2002).

The structures appear in SMILES notation. pKi: −log10 of the molar value.

Chain of D(2) dopamine receptor (P14416 whole entry): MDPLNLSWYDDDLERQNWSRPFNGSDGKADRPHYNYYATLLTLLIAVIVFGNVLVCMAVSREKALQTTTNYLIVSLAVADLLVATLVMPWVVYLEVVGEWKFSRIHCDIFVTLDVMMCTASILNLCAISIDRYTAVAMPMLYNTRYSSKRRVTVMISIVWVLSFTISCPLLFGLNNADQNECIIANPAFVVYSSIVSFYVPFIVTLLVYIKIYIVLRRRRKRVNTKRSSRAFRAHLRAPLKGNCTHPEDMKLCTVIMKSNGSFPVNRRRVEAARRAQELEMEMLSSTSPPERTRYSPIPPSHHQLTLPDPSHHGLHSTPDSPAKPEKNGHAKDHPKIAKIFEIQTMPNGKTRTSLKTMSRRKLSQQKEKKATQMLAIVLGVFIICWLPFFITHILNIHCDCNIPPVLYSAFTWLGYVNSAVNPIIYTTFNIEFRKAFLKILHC
Chain of D(3) dopamine receptor (P35462 whole entry): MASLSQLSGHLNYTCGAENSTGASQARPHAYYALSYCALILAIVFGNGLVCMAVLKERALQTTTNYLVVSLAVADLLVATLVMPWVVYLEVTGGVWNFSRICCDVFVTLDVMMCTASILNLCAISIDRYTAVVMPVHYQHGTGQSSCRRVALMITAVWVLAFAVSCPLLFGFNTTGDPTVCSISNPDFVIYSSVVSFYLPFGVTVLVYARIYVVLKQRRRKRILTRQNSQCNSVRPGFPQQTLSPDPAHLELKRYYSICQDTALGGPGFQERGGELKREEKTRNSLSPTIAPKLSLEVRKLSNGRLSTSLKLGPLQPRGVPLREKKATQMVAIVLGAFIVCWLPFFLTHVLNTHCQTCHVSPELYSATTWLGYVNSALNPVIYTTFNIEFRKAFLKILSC

One test has as its target D(2) dopamine receptor (Homo sapiens, UniProt P14416). The experiment in a line: Tested for the binding constant against cloned human Dopamine receptor D2L in HEK cells by displacing [3H]spiperone. It is filed as cell-based, HEK293.
The compound `O=C(NCCN(CCCN1CCN(c2ccccc2)CC1)C1CCc2ccc(O)cc2C1)c1ccccc1` (stereo not drawn) had a pKi of 6.45.

In turn, `CCCN(CCN1CCN(c2cccc(Cl)c2Cl)CC1)C1CCc2ccc(O)cc2C1` (stereo not drawn) gave a pKi of 7.56.

`N#CCCCN(CCCN1CCN(c2ccccc2)CC1)C1CCc2ccc(O)cc2C1` (stereo not drawn): the pKi is 6.21.

The compound `O=C(NCCCCN(CCCN1CCN(c2ccccc2)CC1)C1CCc2ccc(O)cc2C1)c1ccccc1` (stereo not drawn) gave a pKi of 6.11.

A further test concerns the target D(3) dopamine receptor (Homo sapiens, UniProt P35462). The test can be described thus: Tested for the binding constant against cloned human Dopamine receptor D3 in HEK cells by displacing [3H]spiperone. In kind it is cell-based, HEK293.
As for `O=C(NCCN(CCCN1CCN(c2ccccc2)CC1)C1CCc2ccc(O)cc2C1)c1ccccc1` (stereo not drawn), the negative logarithm of the Ki (pKi) is 7.25.

For the compound `CCCN(CCN1CCN(c2cccc(Cl)c2Cl)CC1)C1CCc2ccc(O)cc2C1` (stereo not drawn), the pKi was 8.95.

Turning to `N#CCCCN(CCCN1CCN(c2ccccc2)CC1)C1CCc2ccc(O)cc2C1` (stereo not drawn), the pKi was 7.30.

`O=C(NCCCCN(CCCN1CCN(c2ccccc2)CC1)C1CCc2ccc(O)cc2C1)c1ccccc1` (stereo not drawn): the pKi is 6.12.
